Source: patent US11993599B2, “Therapeutic compounds” (Genentech, Inc., priority 2021, dated 2024)

Legend:
Type in all cases: cell-based
BRM [1] = molecular target: T1, BRM (Homo sapiens, UniProt P51531); test: HiBIT nanoluciferase complementation screen for BRM degraders; settings: 18 hours, BRM-HiBIT KI Hela cells, luminescence normalized: DMSO only = 0%, no cells = −100%; for Median HiBiT activity 1 μM: compound 1 μM; for Median HiBiT activity 10 μM: compound 10 μM
Description: Example B-1: HiBIT Nanoluciferase Complementation Screen for BRM Degraders
To assess BRM degradation, compounds were screened for their effect of BRM levels using the HiBIT nanoluciferase complementation strategy developed at Promega. In brief, a HELA cell line that was genetically modified via CRISPR/CAS9 was used to fuse the HiBIT sequence at the 3′ end of BRM (BRM-HiBIT KI Hela). BRM protein levels were then detected using the Nano-Glo HiBIT lytic detection reagent (Promega).
The screened compounds were plated into a white 384-well plate at 10 μM and 1 μM in 25 nL DMSO using an Echo dispenser (Labcyte). BRM-HiBIT KI Hela cells were seeded in the compound plate at 5000 cell per well at 25 μl in DMEM growth media (containing 10% FBS, 1% Glutamax (GIBCO cat #31053-028), lx Penicillin-Streptomycin (ROCHE, cat #1107444001), 4.5 g/L D-Glucose, and no phenol red). After incubation with compounds for 18 hours at 37° C., cell viability was assessed by the addition of 5 μl Cell Titer-Fluor reagent (Promega). After 30 s of mixing on an orbital shaker, and 30 minutes incubation at 37° C., fluorescence was measured with an INFINITE F500 (Tecan) (380-400 nm excitation, 505 nm emission). Next, to assess BRM HiBIT levels, 30 μl of Nano-Glo HiBIT lytic detection reagent (Promega) containing 1:50 Nano-Glo HiBIT lytic substrate and 1:100 LgBIT protein per ml of lytic buffer was added. After shaking on an orbital shaker at 350 rpm for 10 minutes, luminescence was measured on the INFINITE F500 (Tecan). To assess compound effects, luminescence signal was normalized with the mean of wells treated with DMSO only set to 0% and the mean of wells containing no cells set to −100%. Note that, in Table 4, the “Compound Number” corresponds to that used in Table 1.

BRG1 = molecular target: T2, BRG1 (Homo sapiens, UniProt P51532); test: Immunofluorescence assay for BRG1 degradation in SW1573 cells; settings: 20 hours incubation; for DC50: immunofluorescence mean nuclear signal, read-out: BRG1 IF Degradation IC50; for Dmax: SW1573, 20 h, normalized to a known degrader control, read-out: BRG1 IF Degradation Sinf (%)
T2 construct: either BRM primary antibody (Cell signaling Cat #11966) or BRG primary antibody (Abcam, ab 110641); endogenous in cells; host or cells: SW1573
T2 sequence (P51532 whole entry): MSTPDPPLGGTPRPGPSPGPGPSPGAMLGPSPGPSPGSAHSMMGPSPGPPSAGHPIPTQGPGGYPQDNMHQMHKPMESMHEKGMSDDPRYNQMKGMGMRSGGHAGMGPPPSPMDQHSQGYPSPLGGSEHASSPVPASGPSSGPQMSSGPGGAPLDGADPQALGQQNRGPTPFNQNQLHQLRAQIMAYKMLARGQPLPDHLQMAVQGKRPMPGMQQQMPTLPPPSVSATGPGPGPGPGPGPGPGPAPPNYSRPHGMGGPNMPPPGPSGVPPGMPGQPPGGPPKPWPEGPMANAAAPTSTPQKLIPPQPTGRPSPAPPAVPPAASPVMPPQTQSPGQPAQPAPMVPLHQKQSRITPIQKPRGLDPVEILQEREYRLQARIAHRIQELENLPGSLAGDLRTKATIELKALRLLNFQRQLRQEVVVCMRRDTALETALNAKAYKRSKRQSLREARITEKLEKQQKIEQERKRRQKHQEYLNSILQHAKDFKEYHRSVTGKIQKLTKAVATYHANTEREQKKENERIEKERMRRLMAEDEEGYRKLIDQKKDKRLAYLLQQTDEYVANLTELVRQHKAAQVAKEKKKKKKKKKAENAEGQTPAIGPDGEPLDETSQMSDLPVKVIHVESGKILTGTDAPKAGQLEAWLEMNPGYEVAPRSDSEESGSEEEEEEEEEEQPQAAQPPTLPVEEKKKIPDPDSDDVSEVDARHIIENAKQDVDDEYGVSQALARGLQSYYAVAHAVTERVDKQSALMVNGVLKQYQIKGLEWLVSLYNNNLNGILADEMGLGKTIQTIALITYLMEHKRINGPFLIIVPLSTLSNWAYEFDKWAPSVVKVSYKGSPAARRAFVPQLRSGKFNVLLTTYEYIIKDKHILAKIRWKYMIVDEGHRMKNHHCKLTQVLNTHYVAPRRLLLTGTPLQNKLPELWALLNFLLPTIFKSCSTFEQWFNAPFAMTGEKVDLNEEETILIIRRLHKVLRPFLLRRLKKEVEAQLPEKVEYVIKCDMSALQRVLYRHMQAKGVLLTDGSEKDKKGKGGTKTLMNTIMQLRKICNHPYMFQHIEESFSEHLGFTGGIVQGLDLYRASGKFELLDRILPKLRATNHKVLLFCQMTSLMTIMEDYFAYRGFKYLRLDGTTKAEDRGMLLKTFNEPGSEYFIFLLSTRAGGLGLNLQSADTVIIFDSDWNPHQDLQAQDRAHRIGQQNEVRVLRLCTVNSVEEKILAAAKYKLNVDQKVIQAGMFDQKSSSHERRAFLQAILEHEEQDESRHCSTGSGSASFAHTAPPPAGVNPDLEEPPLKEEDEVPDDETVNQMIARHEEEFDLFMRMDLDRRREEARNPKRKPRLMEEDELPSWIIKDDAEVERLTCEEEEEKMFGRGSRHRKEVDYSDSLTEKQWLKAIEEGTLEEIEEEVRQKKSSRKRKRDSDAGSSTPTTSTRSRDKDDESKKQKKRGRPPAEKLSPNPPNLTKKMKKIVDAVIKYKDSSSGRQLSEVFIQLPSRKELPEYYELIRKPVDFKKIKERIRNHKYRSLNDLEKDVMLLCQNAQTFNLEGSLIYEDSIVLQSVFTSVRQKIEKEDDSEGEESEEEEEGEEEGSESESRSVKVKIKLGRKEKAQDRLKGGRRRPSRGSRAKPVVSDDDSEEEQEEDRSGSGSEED
Outline: (§1)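 SW1573 cells treated with compound for 20 h, then fixed, permeabilized and immunostained for BRM or BRG1 with Hoechst nuclear counterstain. Mean nuclear intensity per cell quantified by high-content imaging; data normalized to a reference degrader control, with floating-maximum curve fits giving IC50 and Dmax.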

BRM [2] = molecular target: T1, BRM; test: Immunofluorescence assay for BRM degradation in SW1573 cells; set-up: treated overnight at 4° C. with either BRM primary antibody (Cell signaling Cat #11966) or BRG primary antibody; endogenous in cells; host or cells: SW1573; settings: 20 hours incubation; for DC50: immunofluorescence mean nuclear signal, read-out: BRM IF Degradation IC50; for BRM IF Degradation Sinf (%): normalized to a known degrader control
Outline: as §1

T1 sequence (P51531 whole entry): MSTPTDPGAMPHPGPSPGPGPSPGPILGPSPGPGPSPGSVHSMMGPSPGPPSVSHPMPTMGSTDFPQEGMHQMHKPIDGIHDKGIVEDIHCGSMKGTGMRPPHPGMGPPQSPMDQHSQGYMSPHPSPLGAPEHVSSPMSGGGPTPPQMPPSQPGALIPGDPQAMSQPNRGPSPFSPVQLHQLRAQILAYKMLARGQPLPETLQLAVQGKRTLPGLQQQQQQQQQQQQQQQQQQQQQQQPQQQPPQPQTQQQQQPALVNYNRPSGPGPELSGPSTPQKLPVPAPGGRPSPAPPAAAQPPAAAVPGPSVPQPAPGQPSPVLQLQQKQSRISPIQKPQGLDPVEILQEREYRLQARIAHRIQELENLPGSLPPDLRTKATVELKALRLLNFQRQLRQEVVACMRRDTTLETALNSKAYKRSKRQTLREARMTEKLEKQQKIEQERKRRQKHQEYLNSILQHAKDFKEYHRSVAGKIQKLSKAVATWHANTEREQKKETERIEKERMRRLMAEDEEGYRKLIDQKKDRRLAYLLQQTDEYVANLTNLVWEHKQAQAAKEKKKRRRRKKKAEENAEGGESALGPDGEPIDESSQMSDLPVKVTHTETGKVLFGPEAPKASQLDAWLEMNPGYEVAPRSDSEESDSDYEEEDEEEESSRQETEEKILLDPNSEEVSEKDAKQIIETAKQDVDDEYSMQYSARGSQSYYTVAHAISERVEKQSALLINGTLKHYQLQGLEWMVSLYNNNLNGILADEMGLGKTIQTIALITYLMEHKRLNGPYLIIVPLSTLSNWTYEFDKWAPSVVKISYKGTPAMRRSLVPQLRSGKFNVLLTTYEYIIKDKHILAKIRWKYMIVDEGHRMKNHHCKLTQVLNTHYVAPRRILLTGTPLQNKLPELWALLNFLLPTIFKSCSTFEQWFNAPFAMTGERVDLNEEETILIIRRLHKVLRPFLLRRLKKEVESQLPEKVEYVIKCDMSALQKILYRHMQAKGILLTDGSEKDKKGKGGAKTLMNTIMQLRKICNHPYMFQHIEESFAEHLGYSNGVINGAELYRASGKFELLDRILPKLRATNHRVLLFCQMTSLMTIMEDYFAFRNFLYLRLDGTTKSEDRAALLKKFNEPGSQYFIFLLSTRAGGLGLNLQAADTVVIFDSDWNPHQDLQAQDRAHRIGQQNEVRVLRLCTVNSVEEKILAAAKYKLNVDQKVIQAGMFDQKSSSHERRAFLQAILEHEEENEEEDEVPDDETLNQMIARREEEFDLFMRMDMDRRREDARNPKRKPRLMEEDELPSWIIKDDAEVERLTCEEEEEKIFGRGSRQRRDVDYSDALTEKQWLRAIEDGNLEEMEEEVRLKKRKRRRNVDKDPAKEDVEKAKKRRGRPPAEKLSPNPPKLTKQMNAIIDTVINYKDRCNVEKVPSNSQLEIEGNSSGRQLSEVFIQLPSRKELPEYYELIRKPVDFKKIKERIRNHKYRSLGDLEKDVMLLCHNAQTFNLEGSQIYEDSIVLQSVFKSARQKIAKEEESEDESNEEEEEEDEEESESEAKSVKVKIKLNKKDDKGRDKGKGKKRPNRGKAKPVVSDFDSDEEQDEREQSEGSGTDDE

Structure (SMILES)	Median HiBiT activity 1 μM (BRM [1]) [%]	Median HiBiT activity 10 μM (BRM [1]) [%]	DC50 (BRG1) [nM]	Dmax (BRG1) [%]	DC50 (BRM [2]) [nM]	BRM IF Degradation Sinf (%) (BRM [2])
Nc1nnc(-c2ccccc2O)cc1N1CC2CCC(C1)N2c1ccnc(C#CCC2CCCN2)c1 (centres unmarked) [Compound 16, 2-(6-amino-5-(8-(2-(3-(pyrrolidin-2-yl)prop-1-yn-1-yl)pyridin-4-yl)-3,8-diazabicyclo[3.2.1]octan-3-yl)pyridazin-3-yl)phenol]	−38.7074	−29.4258	10 to 100	0 to 30	10 to 100	E (E indicates −30%-−70%)
NCCCCCCc1cc(N2C3CCC2CN(c2cc(-c4ccccc4O)nnc2N)C3)ccn1 [Compound 20, 2-(6-amino-5-(8-(2-(6-aminohexyl)pyridin-4-yl)-3,8-diazabicyclo[3.2.1]octan-3-yl)pyridazin-3-yl)phenol]	−33.3403	−8.91	10 to 100	71 to 120	10 to 100	F (F indicates −71%-−120%)
Nc1nnc(-c2ccccc2O)cc1N1CC2CCC(C1)N2c1ccnc(C#CC2CCN2)c1 (centres unmarked) [Compound 17, 2-(6-amino-5-(8-(2-(azetidin-2-ylethynyl)pyridin-4-yl)-3,8-diazabicyclo[3.2.1]octan-3-yl)pyridazin-3-yl)phenol]	−37.0864	−51.9890	10 to 100	0 to 30	10 to 100	E (E indicates −30%-−70%)
Nc1nnc(-c2ccccc2O)cc1N1CC2CCC(C1)N2c1ccnc(C#CCN2CCOCC2)c1 [Compound 9, 2-(6-amino-5-(8-(2-(3-morpholinoprop-1-yn-1-yl)pyridin-4-yl)-3,8-diazabicyclo[3.2.1]octan-3-yl)pyridazin-3-yl)phenol]	−50.6553	−33.5251	< 10	0 to 30	10 to 100	E (E indicates −30%-−70%)
Nc1nnc(-c2ccccc2O)cc1N1CC2CCC(C1)N2c1ccnc(C#CC2CCNCC2)c1 [Compound 19, 2-(6-amino-5-(8-(2-(piperidin-4-ylethynyl)pyridin-4-yl)-3,8-diazabicyclo[3.2.1]octan-3-yl)pyridazin-3-yl)phenol]	−36.9943	−56.3342	> 100	30 to 70	10 to 100	E (E indicates −30%-−70%)
Nc1nnc(-c2ccccc2O)cc1N1CC2CCC(C1)N2c1ccnc(C#CC2CCCN2)c1 (centres unmarked) [Compound 14, 2-(6-amino-5-(8-(2-(pyrrolidin-2-ylethynyl)pyridin-4-yl)-3,8-diazabicyclo[3.2.1]octan-3-yl)pyridazin-3-yl)phenol]	−42.9269	−50.5501	10 to 100	0 to 30	< 10	E (E indicates −30%-−70%)
Nc1nnc(-c2ccccc2O)cc1N1CC2CCC(C1)N2c1ccnc(C#CCN2CCNCC2)c1 [Compound 28, 2-(6-amino-5-(8-(2-(3-(piperazin-1-yl)prop-1-yn-1-yl)pyridin-4-yl)-3,8-diazabicyclo[3.2.1]octan-3-yl)pyridazin-3-yl)phenol]	−23.3156	−44.9026	> 100		> 100	E (E indicates −30%-−70%)
Nc1nnc(-c2ccccc2O)cc1N1CC2CCC(C1)N2c1ccnc(C#CCC2CCCCN2)c1 (centres unmarked) [Compound 13, 2-(6-amino-5-(8-(2-(3-(piperidin-2-yl)prop-1-yn-1-yl)pyridin-4-yl)-3,8-diazabicyclo[3.2.1]octan-3-yl)pyridazin-3-yl)phenol]	−44.9864	−32.1865	10 to 100	0 to 30	10 to 100	E (E indicates −30%-−70%)
